# Measured values published in patent publication US5538976A, “Substituted tertiary amino compound or salt thereof” (Yamanouchi Pharmaceutical Co., Ltd., priority 1992, dated 1996).
# Experiments:
# aromatase [1] = target: T1, aromatase (Rattus norvegicus, UniProt P22443); assay: biochemical
# T1 sequence (P22443 1-508): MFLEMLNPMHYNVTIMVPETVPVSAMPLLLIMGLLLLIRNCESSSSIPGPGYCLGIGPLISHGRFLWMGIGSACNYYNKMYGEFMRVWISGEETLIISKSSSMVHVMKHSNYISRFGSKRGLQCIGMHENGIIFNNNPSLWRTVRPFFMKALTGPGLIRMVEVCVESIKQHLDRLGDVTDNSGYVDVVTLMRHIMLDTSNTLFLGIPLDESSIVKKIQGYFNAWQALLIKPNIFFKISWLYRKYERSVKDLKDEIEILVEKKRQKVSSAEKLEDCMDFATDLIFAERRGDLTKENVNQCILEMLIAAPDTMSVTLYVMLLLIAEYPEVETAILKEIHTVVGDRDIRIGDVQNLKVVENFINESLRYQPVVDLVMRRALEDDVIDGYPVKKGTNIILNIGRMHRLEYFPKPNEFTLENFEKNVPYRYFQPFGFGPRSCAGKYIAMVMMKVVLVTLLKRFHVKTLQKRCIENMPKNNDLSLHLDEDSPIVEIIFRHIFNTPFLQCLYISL
# From the text: IC50 of a test compound in aromatase inhibition was obtained from inhibition of ^3 H2 O released from [1,2-^3 H]-androstenedione in the microsome of a rat ovary.
# estradiol biosynthesis = assay: In vivo inhibiting activity on estrogen production in rat (PMSG-primed, ovarian estradiol by RIA); conditions: po, per os, 3 hours after administration, read-out: inhibition on estradiol biosynthesis with respect to the control
# Experimental: (b) In vivo inhibiting activity on estrogen production in rat:
# PMSG (pregnant mare serum gonadotropin) (100 IU/rat) was subcutaneously injected to an immature female Wister rat weighing 60 g. After 72 hours from the injection, a suspension of a test compound in 0.5 ml of 20% polyethylene glycol aqueous solution was given to the rat per os. A 20% polyethylene glycol aqueous solution was administered to a control group. After 3 hours from the administration of the drug or placebo, the rat was decapitated and bled out, and the ovary was removed. The estradiol concentration in the ovary was measured by RIA.
# [2] = tested on: dimethylbenzanthracene (DMBA)-induced tumor; assay: Antitumor activity in rat, DMBA-induced breast carcinoma; type: in vivo; conditions: orally, daily dose of from 0.04 to 1.0 mg/kg for 2 weeks, rats bearing breast carcinoma
# Experimental: (c) Antitumor activity in rat:
# The antitumor activity on breast carcinoma was measured in a dimethylbenzanthracene (DMBA)-induced tumor in a female Sprague-Dawlay rat.
# This experimentation is commonly employed as a method for determining an antitumor activity in an animal model of breast carcinoma.
# aromatase [3] = target: T2, aromatase (Homo sapiens, UniProt P11511); assay: Inhibiting activity on aromatase of human placenta origin (microsome, 3H2O release from [1,2-3H]androstenedione); type: biochemical; conditions: in vitro, read-out: IC50 for in vitro aromatase inhibition
# T2 construct: in the microsome of a human placenta; from tissue; host or cells: human placenta microsomes
# T2 sequence (P11511 1-503): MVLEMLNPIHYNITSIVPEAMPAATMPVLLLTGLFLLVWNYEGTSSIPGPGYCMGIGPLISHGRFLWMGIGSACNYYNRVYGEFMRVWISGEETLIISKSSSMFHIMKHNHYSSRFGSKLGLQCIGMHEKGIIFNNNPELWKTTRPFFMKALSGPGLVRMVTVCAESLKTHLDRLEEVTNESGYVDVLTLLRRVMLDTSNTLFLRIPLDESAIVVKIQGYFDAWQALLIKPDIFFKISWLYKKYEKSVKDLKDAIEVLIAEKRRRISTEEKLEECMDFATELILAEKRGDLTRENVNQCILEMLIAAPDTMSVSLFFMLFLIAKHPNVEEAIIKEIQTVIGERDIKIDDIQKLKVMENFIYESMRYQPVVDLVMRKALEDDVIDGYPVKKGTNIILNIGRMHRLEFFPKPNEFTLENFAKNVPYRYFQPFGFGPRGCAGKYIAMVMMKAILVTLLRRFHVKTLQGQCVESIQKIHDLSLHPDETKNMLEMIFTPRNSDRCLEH
# From the text: (a) Inhibiting activity on aromatase of human placenta origin:
# Measured in accordance with the method described in Endocrine Research, Vol. 16, No. 2, p. 253 (1990).
# The inhibiting activity of a test compound was obtained from inhibition of ^3 H2 O released from [1,2-^3 H]androstenedione in the microsome of a human placenta.
# IC50 value for in vitro aromatase inhibition in the microsome of a human placenta was obtained according to the method (2)-(a).
Structure (SMILES),EC50 (aromatase [1]),inhibition at 0.03 mg/kg (estradiol biosynthesis),suppression or regression of tumors in the mammary gland [2],IC50 (aromatase [3]),IC50 (aromatase [1])
"Fc1ccc(N(Cc2ccccc2)Cc2cccnc2)c(F)c1 [Comparative Compound 2, reference compound]",< 50 nM,–,–,–,–
"N#Cc1ccc(N(Cc2cc(F)cc(F)c2)c2cncnc2)cc1 [Example 34, 5-[N-(4-Cyanophenyl)-N-(3,5-difluorobenzyl)amino]pyrimidine]",–,86%,suppression or regression of tumors,0.036 nM,0.22 nM
